Laboratory results: ChEMBL document CHEMBL1201862, “PubChem BioAssay data set” (2004)
Activity calls are given as the source filed them.

Columns and labels:
[1] = test system: Streptococcus sp. 'group A'; test: growth inhibition of control SK(-) GAS strain, dose response, counter-screen for streptokinase expression inhibitor project, luminescence, kanamycin, BacTiterGlo, confirmation (AID 1900); assay type: functional, organism-based
[2] = target: T1, Streptokinase A (Streptococcus pyogenes serotype M1, UniProt P10520); test: S. pyogenes streptokinase expression inhibitors, potency, dose response, plasminogen activation absorbance, OD405 (AID 1914); assay type: functional, Streptococcus pyogenes M1 GAS;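 also: secreted streptokinase activity via plasminogen activation per viability signal from cell pellet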
T1 sequence (P10520 whole entry): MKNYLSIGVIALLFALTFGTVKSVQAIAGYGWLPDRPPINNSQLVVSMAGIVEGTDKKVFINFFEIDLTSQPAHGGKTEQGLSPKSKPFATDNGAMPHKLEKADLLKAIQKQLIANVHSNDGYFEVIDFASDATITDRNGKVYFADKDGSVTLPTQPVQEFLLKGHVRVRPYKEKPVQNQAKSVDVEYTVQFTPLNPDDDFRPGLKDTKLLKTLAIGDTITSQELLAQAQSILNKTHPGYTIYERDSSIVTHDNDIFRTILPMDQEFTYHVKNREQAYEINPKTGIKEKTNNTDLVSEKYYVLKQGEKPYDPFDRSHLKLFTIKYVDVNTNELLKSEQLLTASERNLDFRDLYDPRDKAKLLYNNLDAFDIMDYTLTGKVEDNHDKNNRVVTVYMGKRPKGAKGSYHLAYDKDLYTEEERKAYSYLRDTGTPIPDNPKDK

[3] = test system: Streptococcus; test: Group A Streptococcus viability loss, dose response, counter-screen for streptokinase expression inhibitor project, luminescence, BacTiterGlo (AID 1915); assay type: functional, organism-based;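 also: potency for reduction of bacterial viability or growth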
[4] = target: Cytochrome P450 2C19 (Homo sapiens, UniProt P33261); test: Cytochrome panel assay with activity outcomes. Panel member name: p450-cyp2c19 Compounds with AC50 equal or less than 10 uM are considered active; assay type: functional
[5] = target: T2, Rac GTPase-activating protein 1 (Homo sapiens, UniProt Q9H0H5); test: MgcRacGAP GTPase-activating activity inhibitors, confirmation, biochemical, ADP Hunter fluorescence, primary and confirmatory (AID 624330); assay type: functional
T2 sequence (Q9H0H5 whole entry): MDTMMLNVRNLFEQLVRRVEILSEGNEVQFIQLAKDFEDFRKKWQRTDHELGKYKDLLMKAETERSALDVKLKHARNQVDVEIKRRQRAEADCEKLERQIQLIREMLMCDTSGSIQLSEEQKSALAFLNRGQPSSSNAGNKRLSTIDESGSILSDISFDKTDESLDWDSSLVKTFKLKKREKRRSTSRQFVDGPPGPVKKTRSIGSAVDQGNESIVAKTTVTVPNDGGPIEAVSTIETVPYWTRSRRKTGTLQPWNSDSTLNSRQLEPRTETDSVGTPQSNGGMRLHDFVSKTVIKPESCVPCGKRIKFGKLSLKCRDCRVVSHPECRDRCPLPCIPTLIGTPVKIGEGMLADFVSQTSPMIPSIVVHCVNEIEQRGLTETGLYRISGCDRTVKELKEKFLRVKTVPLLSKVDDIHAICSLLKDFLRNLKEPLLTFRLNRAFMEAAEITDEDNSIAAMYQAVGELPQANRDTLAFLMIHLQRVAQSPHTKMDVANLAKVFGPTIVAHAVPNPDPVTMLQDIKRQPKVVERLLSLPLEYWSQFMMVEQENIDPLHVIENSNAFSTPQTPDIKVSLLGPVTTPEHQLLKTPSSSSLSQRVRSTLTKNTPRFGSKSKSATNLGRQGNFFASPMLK

[6] = inhibitors of firefly luciferase expression or activity, dose response, H4 neuroglioma cells, luminescence (AID 1990); assay type: functional, cell-based
[7] = Luminescence Cell-Based Dose Response HTS to Identify Inhibitors of 5'UTR Stem-Loop Driven Prion Protein mRNA Translation in H4 Neuroglioblastoma Cells. [Related pubchem assays: 1827 (Project Summary), 1813 (Primary HTS)]; assay type: functional
[8] = inhibitors of SNCA 5'UTR-driven reporter translation, confirmation, H4 neuroglioma cells, luminescence (AID 1988); assay type: functional, cell-based
[9] = growth suppression of PTEN-null colon cells, dose response, cell-based, HCT116 PTEN knockout (AID 1047); assay type: functional;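 also: HCT116 colon tumor cells with PTEN knocked out; cells exposed to compound for 60 hours before readout; potency for loss of cell viability measured by luminescence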
[10] = growth suppression of beta-catenin-knockout colon cells, dose response, cell-based, HCT116, human colon tumor (AID 1045); assay type: functional;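 also: HCT116 colon tumor cells with beta catenin knocked out; cells exposed to compound for 60 hours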
[11] = Luminescence Cell-Based Dose Retest to Confirm Inhibitors of Cancer Stem Cells. [Related pubchem assays (depositor defined):AID2717, AID2721]; assay type: functional; details: Homo sapiens
[12] = inhibitors of intracellular T. cruzi replication, confirmation, NIH3T3 host cells, beta-gal luminescence (AID 2044); assay type: functional, cell-based;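 also: intracellular parasites grown in NIH/3T3 mouse fibroblasts as host cells; luminescent beta-galactosidase reporter signal from transgenic T. cruzi replicating inside host cells; inhibitors lower the luminescence signal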
[13] = cytotoxicity toward NIH3T3 fibroblasts, dose response, counter-screen, cell-based, ATP luminescence, mouse fibroblasts (AID 2010); assay type: functional;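 also: cells exposed to compound for about 90 hours before reading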

Chain of Cytochrome P450 2C19 (P33261 whole entry): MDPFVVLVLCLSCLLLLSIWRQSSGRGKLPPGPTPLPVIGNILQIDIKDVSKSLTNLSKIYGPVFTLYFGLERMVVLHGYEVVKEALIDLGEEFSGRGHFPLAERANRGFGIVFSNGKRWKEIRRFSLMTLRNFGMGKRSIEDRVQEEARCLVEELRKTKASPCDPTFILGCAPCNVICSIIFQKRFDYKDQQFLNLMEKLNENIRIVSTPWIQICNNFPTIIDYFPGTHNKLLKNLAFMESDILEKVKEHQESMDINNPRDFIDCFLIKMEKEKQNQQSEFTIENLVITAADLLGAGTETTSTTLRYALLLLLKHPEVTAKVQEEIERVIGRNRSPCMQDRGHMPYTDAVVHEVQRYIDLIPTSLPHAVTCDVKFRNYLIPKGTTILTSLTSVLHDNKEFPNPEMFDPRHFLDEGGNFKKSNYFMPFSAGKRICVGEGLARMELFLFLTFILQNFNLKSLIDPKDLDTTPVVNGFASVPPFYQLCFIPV

Which results are given for `CC(OC(=O)CC1CCCC1)C(=O)Nc1ccc(S(N)(=O)=O)cc1` (stereo not given)?
EC50 [1]: > 150 µM (not active); EC50 [2]: > 150 µM (not active); EC50 [3]: > 150 µM (not active)

With `O=C(O)Cc1sc(-c2ccc(Cl)cc2)nc1-c1ccccc1` as the compound, how does the AC50 ([4]; read-out: AC50) read?
Its AC50 is 14.1 µM (inconclusive).

With `COc1cccc(CN2CCC(C(=O)N3CCC(C)CC3)CC2)c1` as the compound, how does the IC50 [5] read?
The IC50 was 162 µM (active).

Which results are given for `COc1ccc(Oc2c(Cl)cnn(-c3ccc(Cl)c(Cl)c3)c2=O)cc1`?
EC50 [6]: 15 µM (active); EC50 [7]: 13.4 µM (active); EC50 [8]: 8.46 µM (active); EC50 [9]: 91.6 µM (active); EC50 [10]: 10.8 µM (active); AC50 [11]: 4.57 µM (active)

Which results are given for `CCCCC(=O)Nc1nc(C)c(-c2csc(Nc3cc(OC)ccc3OC)n2)s1`?
EC50 [6]: 12.2 µM (active); EC50 [7]: 18.2 µM (active); EC50 [8]: 7.93 µM (active); AC50 [11]: 1.35 µM (active)

Which results are given for `CCC(C)c1ccccc1NS(=O)(=O)c1cnn(CC)c1` (stereo not given)?
EC50 [1]: > 150 µM (not active); EC50 [2]: > 150 µM (not active); EC50 [3]: > 150 µM (not active)

Which results are given for `CCOC(=O)N1CCN(C(=O)c2ccc3c(c2)N(C)C(=O)/C(=C\c2ccc(OCC)c(OC)c2)S3)CC1`?
EC50 [1]: 0.624 µM (active); EC50 [2]: > 150 µM (not active); EC50 [3]: 4.57 µM (active)

For `COc1ccccc1NC(=O)CSc1nnc(COc2ccc(Cl)cc2)n1Cc1ccco1`, which EC50 [6] is on record?
The EC50 was > 120 µM (not active).

What about the EC50 [7] of the same compound?
The EC50 was > 120 µM (not active).

What about the EC50 [8] of the same compound?
The EC50 was 48 µM (active).

Which EC50 [1] does the source give for `CC(C)=CCc1c(-c2ccc(O)cc2O)oc2cc3c(c(O)c2c1=O)C=CC(C)(C)O3` [CUDRAFLAVONE B] here?
The EC50 was 3.36 µM (active).

What about the EC50 [2] of the same compound?
Its EC50 is > 150 µM (not active).

What about the EC50 [3] of the same compound?
The EC50 was 4.94 µM (active).

With `COc1cccc(CNCc2ccccc2Br)c1OC` as the compound, how does the IC50 [5] read?
Its IC50 is 145 µM (active).

For `CC(C)(C)c1cc(-c2ccco2)c(C#N)c(SCC#N)n1`, which EC50 [6] is on record?
Its EC50 is 16 µM (active).

And the EC50 [7]?
The EC50 was > 120 µM (not active).

What about the EC50 [8] of the same compound?
The EC50 was 15.2 µM (active).

For `CC(C)CNCCc1ccccn1`, which AC50 [4] is on record?
Its AC50 is “inconclusive”.

For `Cc1ccc(NCCCCO)cc1C`, which IC50 [5] is on record?
The IC50 was 35.9 µM (active).

For `OCCCCC#Cc1c(-c2ccsc2)sc2ccccc12`, which EC50 [1] is on record?
The EC50 was 6.64 µM (active).

And the EC50 [2]?
Its EC50 is > 150 µM (not active).

And the EC50 [3]?
The EC50 was 8.45 µM (active).

What about the AC50 [11] of the same compound?
The AC50 was 3.15 µM (active).

For `O=C(c1cnn2c(C(F)(F)F)cc(-c3ccccc3)nc12)N1CCCCC1c1cccnc1` (stereo not given), which EC50 [6] is on record?
Its EC50 is > 120 µM (not active).

What about the EC50 [7] of the same compound?
Its EC50 is 75.7 µM (active).

And the EC50 [8]?
The EC50 was > 120 µM (not active).

What about the EC50 [12] of the same compound?
Its EC50 is 0.506 µM (active).

And the EC50 [13]?
The EC50 was > 60 µM (not active).

For `O=C(O)CC[C@@H](C(=O)O)N1C(=O)[C@@H]2[C@@H]3CC[C@H](C3)[C@@H]2C1=O`, which AC50 [4] is on record?
The AC50 was “inconclusive”.

Which EC50 [1] does the source give for `COc1ccc(-c2nc(/C=C3\C(C)=Nc4ccccc43)c(O)o2)cc1` here?
Its EC50 is 3.54 µM (active).

What about the EC50 [2] of the same compound?
The EC50 was > 150 µM (not active).

What about the EC50 [3] of the same compound?
Its EC50 is 12.1 µM (active).

For `N#CC1=C(N)OC2=C(CCc3ccccc32)C1c1ccccc1Cl` (stereo not given), which EC50 [1] is on record?
The EC50 was 4.61 µM (active).

What about the EC50 [2] of the same compound?
Its EC50 is 11.9 µM (active).

And the EC50 [3]?
Its EC50 is 18.9 µM (active).

With `O=C(c1ccc(F)cc1)N1CCN(C2CCCCC2)CC1` as the compound, how does the IC50 [5] read?
Its IC50 is 196 µM (active).

With `COc1ccc(O)c(C(=O)c2coc(=N)c(C(=O)Nc3ccc(SC(F)F)cc3)c2)c1` as the compound, how does the EC50 [1] read?
The EC50 was 40.6 µM (active).

What about the EC50 [2] of the same compound?
The EC50 was > 150 µM (not active).

What about the EC50 [3] of the same compound?
Its EC50 is > 150 µM (not active).

Which AC50 ([4]; read-out: AC50) does the source give for `COCCn1c(=O)c(CCc2ccccc2)nc2cnc(N3CCN(C)CC3)nc21` here?
Its AC50 is 10 µM (inconclusive).

With `CC(=O)NC[C@H]1CN(c2ccc(N3CCOCC3)c(F)c2)C(=O)O1` [LINEZOLID] as the compound, how does the EC50 [1] read?
The EC50 was 0.17 µM (active).

And the EC50 [2]?
The EC50 was 6 µM (inconclusive).

And the EC50 [3]?
The EC50 was 0.645 µM (active).

For `Cc1cccn2c(O)c(C(=O)NC3CC(C)CC(C)(C)C3)c(=O)nc12` (stereo not given), which EC50 [6] is on record?
Its EC50 is 13.1 µM (active).

And the EC50 [7]?
The EC50 was 2.59 µM (active).

And the EC50 [8]?
The EC50 was 16.3 µM (active).
